For data set [1], the system named is bEnd.3 cells. The data set is described as follows: Antimycin A induced oxidative stress in bEnd.3 cells, DHE flow cytometry (Example 13.1). Format: cell-based. The conditions noted are these: treatment after Antimycin A. Here is the method:
Mean fluorescence intensity (indicative of oxidative stress) was measured using as control viable cells of 4 separated experiments treated with Antimycin A (AntA) and stained with dihydroethidine (DHE) (“AntA+DHE”). Results are given as % control (unstained cells) to account for minor differences in DHE concentrations and laser fluctuations.
Accordingly, the next series of experiments employed flow cytometry to assess antioxidant effectiveness of PEG-HCCs and targeted PEG-HCCs in cultured brain endothelial cells (b.End3 cells). For these experiments, bEnd.3 cells were cultured to 50-80% confluence in 6 well plates in 2 mL of culture media. The cells were treated with 10 μL of 2 mM Antimycin A (AntA, shown to induce intracellular superoxide radical production). Five minutes later, 1×PBS, PEG-HCC, psPEG-HCC or super oxide dismutase (SOD) was added. The cells were then incubated at 37° C. for 5 minutes. At that time, either 2 μL of 10 mM DHE or a 50% DMSO solution in 1×PBS (control) was added to the wells. The cells were then incubated for another 30 minutes. Next, the cells were placed on ice, trypsinized, and washed twice. The cells were then, counted and stained with SytoxRed (viability stain). 10,000 cells were analyzed per treatment group using the TXRED channel (DHE) and SytoxRed to assess cell viability.
On the technique in general: In flow cytometry, cells or beads pass a laser one at a time.

The nature of data set [2]: Solubility and loading of PTX. Format: physicochemical. The method, then:
The PEG-HCCs were purified by sequential dialysis in DMF and water. This was followed by passage through a PD-10 desalting column to remove any coordinated metals or unbound PEG. […] The particles were water soluble. See Berlin et al. for AFM data.
PEG-HCCs were loaded with PTX by dropwise addition of PTX in methanol (5 mg in 1 mL) to a rapidly stirring solution of PEG-HCCs in water (100 mg/L concentration of core HCCs, 5 mL). Next, the solution was bath-sonicated, concentrated to 3 mL by rotary evaporation (to remove the methanol), and then diluted back to the original volume (5 mL) with water. This provided a translucent solution of PTX non-covalently associated with PEG-HCCs (PTX/PEG-HCCs). […] In other words, it is visually apparent if PTX is precipitating because the solution becomes a milky white color when the PTX is overloaded. Applicants have observed that the maximum loading concentration of PTX in the PEG-HCCs in the experiments performed to date is about 12 mg/mL.

The structures appear in SMILES notation.

Turning to `Cc1c(C)c2c(c(C)c1O)CCC(C)(C(=O)O)O2` (centres unmarked) [Trolox], in data set [1], the “level of oxidative stress (DHE mean fluorescence intensity)” value is on record as “not effective”.
For `CC(=O)O[C@H]1C(=O)[C@@]2(C)[C@H]([C@H](OC(=O)c3ccccc3)[C@]3(O)C[C@H](OC(=O)[C@H](O)[C@@H](NC(=O)c4ccccc4)c4ccccc4)C(C)=C1C3(C)C)[C@]1(OC(C)=O)CO[C@@H]1C[C@@H]2O` [PTX, Paclitaxel], in data set [2], the solubility in water result is “insoluble in water”.

(Values after patent US8916606B2, “Therapeutic compositions and methods for targeted delivery of active agents” (William Marsh Rice University, priority 2009, dated 2014).)
